Publication PMC9025336 (Antibiotics, 2022)
pKd, pKi: −log10 of the molar value. Converted amounts (≈) assume the structure as drawn. Peptide text beside a SMILES is read from it. * marks the point of attachment. Orn(α-tetramethylguanidino) = CN(C)C(=N[C@@H](CCCN)C(=O)*)N(C)C

Key:
[1] = test system: 70S ribosome extract of E. coli Rosetta DE3 pLysS; test: Fluorescence polarization, Kd of cf-labeled peptides; type: binding, Escherichia coli; details: determined for the cf-labeled peptide, 28 °C, 90 min, 95% confidence interval in brackets, triplicate on at least two days, read-out: Kd, Ros
Method: (§1) E. coli BW25113 and E. coli Rosetta pLysS were cultivated in LB medium and harvested at an OD600 of ~4 by centrifugation (5000× g, 30 min, 4 °C). The cell pellets were washed by resuspension in ribosome preparation buffer (20 mmol/L Hepes-KOH, 6 mmol/L MgCl2, 30 mmol/L NH4Cl, pH 7.6, 4°C) and subsequent centrifugation (5000× g, 30 min, 4 °C). Cell pellets were suspended in ribosome preparation buffer ([…]) containing freshly added 2-mercapotethanol (4 mmol/L). Lysozyme was added to the resuspended cells and incubated on ice for 30 min. The cell suspension was disrupted six times using a FastPrep-24^TM 5G instrument (MP Biomedicals, Solon, OH, USA) with BigPrep 50 mL setting (40 s, 4.0 m/s), incubated with DNase I (5 mL/L) on ice for one hour and centrifuged (16,000× g, 30 min, 4 °C). The cell debris was removed from the supernatant by centrifugation (32,000× g, 60 min, 4 °C), and the supernatant was centrifuged again (165,000× g, 17 h, 4 °C). The pellet was resuspended in ribosome preparation buffer (0.1 mL per g cell pellet) to obtain the 70S ribosome extract and stored at −80 °C. The ribosome concentration was estimated by recording the absorbance at 260 nm (1 AU for a ribosome concentration of 28 nmol/L). The molecular weight of the 70S E. coli ribosome was assumed to be 2.3 MDa.
Kd was determined using a ribosome extract and cf-labeled peptides in ribosome preparation buffer. Briefly, black 384-well plates (flat bottom, Greiner Bio-One GmbH) were blocked with casein (0.5%, w/v) in phosphate buffer containing 0.05% (v/v) Tween 20 at 4 °C overnight and washed three times with phosphate buffer. A 2-fold dilution series of the ribosome extract (20 μL per well) in ribosome preparation buffer was prepared in a black 384-well plate (23 dilution steps). The cf-labeled peptide was dissolved in ribosome preparation buffer (20 μL, 40 nmol/L), added to each well, and incubated at 28 ± 1 °C. After 90 min, the fluorescence polarization was measured on a PARADIGMTM microplate reader (Beckman Coulter, Salzburg, Austria) in the top read position (λexc = 485 nm, λem = 535 nm) in triplicate on at least two different days. Data were fitted to a nonlinear, dose–response logistical transition equation [y= y0 + a/(1 + (x/x0)b)] using the Levenberg–Marquardt algorithm, with dissociation constants (Kd) represented by the x0 coefficients (GraphPad Prism for Windows v. 5.02, San Diego, CA, USA).

E. coli BL21 (DE3) = type: cell-based, Escherichia coli; details: BL21, 2 h
Method: (§2) The minimal inhibitory concentrations (MIC) were determined at least twice in triplicate using a liquid broth microdilution assay in sterile 96-well plates and a total volume of 100 μL per well. Aqueous peptide solutions were serially 2-fold diluted in 25% MHBII or 33% TSB medium in a volume of 50 µL. An overnight culture was diluted in 25% MHBII or 33% TSB medium to 1.5 × 10^7 CFU/mL, and an aliquot of 50 μL was added to each well. The final cell count in each well was 7.5 × 10^6 CFU/mL. […] The turbidity of each well was measured at a wavelength of 600 nm. The MIC was defined as the lowest peptide concentration where the turbidity was identical to medium only.

[2] = target: BW25113 ribosome extract, ribosomal binding site of Onc112; test: Fluorescence polarization competition against cf-Onc112 (Ki); set-up: species or system Escherichia coli; details: unlabeled PrAMP against cf-labeled Onc112, calculated from IC50, 95% confidence interval in brackets
Method: as §1
Ki was determined for ribosome extracts using cf-labeled and unlabeled peptides in ribosome preparation buffer. Black 384-well plates were prepared as described above. Unlabeled peptides or antibiotics (20 µL, 656 µmol/L) were added and 2-fold serially diluted in 23 wells in ribosome preparation buffer. A ribosome solution was prepared by adjusting the ribosome concentration to ~90% of the upper Kd plateau obtained for the cf-labeled peptide to be studied and added to each well (10 µL). […] The fluorescence polarization was measured on a PARADIGMTM microplate reader in the top read position (λexc = 485 nm, λem = 535 nm) in triplicate on at least two different days. […] Inhibition constants, Ki, were calculated as described by Mathias and Jung.

E. coli BW25113 = type: cell-based, Escherichia coli; details: for MIC, BW: BW25113, 2 h
Method: as §2

| SMILES | pKd [1] | MIC in the parent E. coli BL21 strain (E. coli BL21 (DE3)) [µg/mL] | MIC, 25% MHBII (E. coli BL21 (DE3)) [µg/mL] | MIC, 33% TSB (E. coli BL21 (DE3)) [µg/mL] | pKi [2] | MIC, BW (E. coli BW25113) [µg/mL] | less active against BW25113 than against Rosetta DE3 pLysS (fold, from MIC) (E. coli BW25113; ratio of MIC values, 25% MHBII) |
| --- | --- | --- | --- | --- | --- | --- | --- |
| CC[C@H](C)[C@H](NC(=O)[C@@H]1CCCN1C(=O)[C@H](CCCNC(=N)N)NC(=O)[C@H](CC(N)=O)NC(=O)[C@H](CC(N)=O)NC(=O)CN)C(=O)N[C@@H](Cc1ccc(O)cc1)C(=O)N[C@H](C(=O)N1CCC[C@H]1C(=O)N[C@@H](CCCNC(=N)N)C(=O)N1CCC[C@H]1C(=O)N[C@@H](CCCNC(=N)N)C(=O)N1CCC[C@H]1C(=O)N1CCC[C@H]1C(=O)N[C@@H](Cc1c[nH]cn1)C(=O)N1CCC[C@H]1C(=O)N[C@@H](CCCNC(=N)N)C(=O)N1CCC[C@H]1C(=O)N[C@H](C(=O)N[C@@H](CCCNC(=N)N)C(=O)N[C@H](C(=O)O)C(C)C)[C@@H](C)CC)[C@@H](C)CC [Api805] (H-GNNRPIYIPRPRPPHPRPIRV-OH; N-terminus assumed) | 6.29 | 2 to 4 | 4 (≈ 1.6 µM) | 2 (≈ 0.799 µM) | 6.31 |  |  |
| CC[C@H](C)[C@H](NC(=O)[C@H](Cc1ccc(O)cc1)NC(=O)[C@@H](NC(=O)[C@@H]1CCCN1C(=O)[C@H](CCCNC(=N)N)NC(=O)[C@H](CC(N)=O)NC(=O)[C@H](CC(N)=O)NC(=O)[C@H](CCCN)N=C(N(C)C)N(C)C)C(C)C)C(=O)N1CCC[C@H]1C(=O)N[C@@H](CCCNC(=N)N)C(=O)N1CCC[C@H]1C(=O)N[C@@H](CCCNC(=N)N)C(=O)N1CCC[C@H]1C(=O)N1CCC[C@H]1C(=O)N[C@@H](Cc1c[nH]cn1)C(=O)N1CCC[C@H]1C(=O)N[C@@H](CCCNC(=N)N)C(=O)N[C@@H](CC(C)C)C(N)=O [Api88] ({Orn(α-tetramethylguanidino)}-NNRPVYIPRPRPPHPRL-NH2) |  |  |  |  |  | 2 (≈ 0.873 µM) | twofold |
| CC[C@H](C)[C@H](NC(=O)[C@H](Cc1ccc(O)cc1)NC(=O)[C@@H](NC(=O)[C@@H]1CCCN1C(=O)[C@H](CCCNC(=N)N)NC(=O)[C@H](CC(N)=O)NC(=O)[C@H](CC(N)=O)NC(=O)[C@H](CCCN)N=C(N(C)C)N(C)C)C(C)C)C(=O)N1CCC[C@H]1C(=O)N[C@@H](CCCNC(=N)N)C(=O)N1CCC[C@H]1C(=O)N[C@@H](CCCNC(=N)N)C(=O)N1CCC[C@H]1C(=O)N1CCC[C@H]1C(=O)N[C@@H](Cc1c[nH]cn1)C(=O)N1CCC[C@H]1C(=O)N[C@@H](CCCNC(=N)N)C(=O)N[C@@H](CC(C)C)C(=O)O [Api137] ({Orn(α-tetramethylguanidino)}-NNRPVYIPRPRPPHPRL-OH) | 6.70 |  | 4 (≈ 1.75 µM) | 2 (≈ 0.873 µM) | 6.66 | 2 (≈ 0.873 µM) |  |
